# Biological target: T1, estrogen receptor (Homo sapiens, UniProt P03372)
# T1 construct: endogenous in cells; host or cells: ECC-1 cells
# T1 sequence (P03372 1-595): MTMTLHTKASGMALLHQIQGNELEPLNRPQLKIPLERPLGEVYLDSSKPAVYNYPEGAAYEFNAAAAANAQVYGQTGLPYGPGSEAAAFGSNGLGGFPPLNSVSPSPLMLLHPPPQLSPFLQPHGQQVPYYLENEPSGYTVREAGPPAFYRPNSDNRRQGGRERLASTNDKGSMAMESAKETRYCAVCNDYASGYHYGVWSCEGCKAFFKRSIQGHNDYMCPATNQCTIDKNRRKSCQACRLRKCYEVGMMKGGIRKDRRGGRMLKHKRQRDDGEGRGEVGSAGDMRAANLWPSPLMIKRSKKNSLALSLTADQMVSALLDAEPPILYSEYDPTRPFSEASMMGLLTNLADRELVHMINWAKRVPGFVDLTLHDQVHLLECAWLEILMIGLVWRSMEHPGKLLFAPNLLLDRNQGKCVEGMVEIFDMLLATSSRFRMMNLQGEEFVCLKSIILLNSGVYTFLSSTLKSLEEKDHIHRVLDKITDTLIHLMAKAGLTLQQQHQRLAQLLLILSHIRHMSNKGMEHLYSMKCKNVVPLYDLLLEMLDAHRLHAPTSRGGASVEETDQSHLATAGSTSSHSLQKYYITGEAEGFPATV
# Assay: Alkaline phosphatase (AP) assay in ECC-1 cells, agonist mode (no E2) and antagonist mode (500 pM E2)
# Format: cell-based
# Settings: 3 days, AP activity normalized to 500 pM E2 alone, agonist mode without E2, antagonist mode with 500 pM E2
# In short: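 ECC-1 cells in hormone-depleted medium treated 3 days with compound alone (agonist mode) or with 500 pM E2 (antagonist mode). Alkaline phosphatase read by p-nitrophenyl phosphate hydrolysis, 40 min at 42° C, A405. Activity normalized to 500 pM E2 alone.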
row,Compound,"Activity (estrogen receptor modulation, agonism and antagonism)"
1,C[C@@H]1Cc2c([nH]c3ccccc23)[C@@H](c2ccc(CC3CN(CCC#N)C3)s2)N1CC(F)(F)CO [Example I-57],++ (estrogen receptor antagonism having (i) between 10% and 80% increase in the E2-normalized signal in the AP assay (agonist mode) and (ii) between 10% and 80% reduction in the E2-normalized signal in the AP assay (antagonist mode))
2,"C#CCN1CC(Cc2ccc([C@@H]3c4[nH]c5ccccc5c4C[C@@H](C)N3CC(C)(C)F)s2)C1 [Example I-58, (1S,3R)-2-(2-fluoro-2-methyl-propyl)-3-methyl-1-[5-[(1-prop-2-ynylazetidin-3-yl)methyl]-2-thienyl]-1,3,4,9-tetrahydropyrido[3,4-b]indole]",+ (estrogen receptor agonism having (i) at least 80% increase in the E2-normalized signal in the AP assay (agonist mode) and (ii) no more than 80% reduction in the E2-normalized signal in the AP assay (antagonist mode))
3,"C[C@@H]1Cc2c([nH]c3ccccc23)[C@@H](c2ccc(CC3CN(CCC4COC4)C3)s2)N1CC(F)(F)CO [Example I-59, 2,2-difluoro-3-((1S,3R)-3-methyl-1-(5-((1-(2-(oxetan-3-yl)ethyl)azetidin-3-yl)methyl)thiophen-2-yl)-1,3,4,9-tetrahydro-2H-pyrido[3,4-b]indol-2-yl)propan-1-ol]",+ (estrogen receptor agonism having (i) at least 80% increase in the E2-normalized signal in the AP assay (agonist mode) and (ii) no more than 80% reduction in the E2-normalized signal in the AP assay (antagonist mode))
4,"C#CCN1CC(Cc2ccc([C@@H]3c4[nH]c5ccccc5c4C[C@@H](C)N3CC(F)(F)CO)s2)C1 [Example I-60, 2,2-difluoro-3-[(1S,3R)-3-methyl-1-[5-[(1-prop-2-ynylazetidin-3-yl)methyl]-2-thienyl]-1,3,4,9-tetrahydropyrido[3,4-b]indol-2-yl]propan-1-ol]",++ (estrogen receptor antagonism having (i) between 10% and 80% increase in the E2-normalized signal in the AP assay (agonist mode) and (ii) between 10% and 80% reduction in the E2-normalized signal in the AP assay (antagonist mode))
5,"C[C@@H]1Cc2c([nH]c3ccccc23)[C@@H](c2ccc(SC3CN(CCCF)C3)s2)N1CC(C)(C)F [Example I-61, 3-({5-[(1S,3R)-2-(2-fluoro-2-methylpropyl)-3-methyl-1H,2H,3H,4H,9H-pyrido[3,4-b]indol-1-yl]thiophen-2-yl}sulfanyl)-1-(3-fluoropropyl)azetidine]",++ (estrogen receptor antagonism having (i) between 10% and 80% increase in the E2-normalized signal in the AP assay (agonist mode) and (ii) between 10% and 80% reduction in the E2-normalized signal in the AP assay (antagonist mode))
6,"CCCN1CC(Sc2ccc([C@@H]3c4[nH]c5ccccc5c4C[C@@H](C)N3CC(C)(C)F)s2)C1 [Example I-62, 3-({5-[(1S,3R)-2-(2-fluoro-2-methylpropyl)-3-methyl-1H,2H,3H,4H,9H-pyrido[3,4-b]indol-1-yl]thiophen-2-yl}sulfanyl)-1-propylazetidine]",++ (estrogen receptor antagonism having (i) between 10% and 80% increase in the E2-normalized signal in the AP assay (agonist mode) and (ii) between 10% and 80% reduction in the E2-normalized signal in the AP assay (antagonist mode))
7,"C[C@@H]1Cc2c([nH]c3ccccc23)[C@@H](c2cnc(NC3CN(CCCF)C3)s2)N1CC(F)(F)CO [Example I-63, 2,2-difluoro-3-[(1S,3R)-1-[2-[[1-(3-fluoropropyl)azetidin-3-yl]amino]thiazol-5-yl]-3-methyl-1,3,4,9-tetrahydropyrido[3,4-b]indol-2-yl]propan-1-ol]",++ (estrogen receptor antagonism having (i) between 10% and 80% increase in the E2-normalized signal in the AP assay (agonist mode) and (ii) between 10% and 80% reduction in the E2-normalized signal in the AP assay (antagonist mode))
8,"C[C@@H]1Cc2c([nH]c3ccccc23)[C@@H](c2cnc(N[C@H]3CN(CCCF)C[C@H]3F)s2)N1CC(F)(F)CO [Example I-64, 2,2-difluoro-3-[(1S,3R)-1-[2-[[(3S,4R)-4-fluoro-1-(3-fluoropropyl)pyrrolidin-3-yl]amino]thiazol-5-yl]-3-methyl-1,3,4,9-tetrahydropyrido[3,4-b]indol-2-yl]propan-1-ol]",++ (estrogen receptor antagonism having (i) between 10% and 80% increase in the E2-normalized signal in the AP assay (agonist mode) and (ii) between 10% and 80% reduction in the E2-normalized signal in the AP assay (antagonist mode))
9,"C[C@@H]1Cc2c([nH]c3ccccc23)[C@@H](c2cnc(N[C@H]3CN(CCCF)C[C@@H]3F)s2)N1CC(F)(F)CO [Example I-65, 2,2-difluoro-3-((1S,3R)-1-(2-(((3S,4S)-4-fluoro-1-(3-fluoropropyl)pyrrolidin-3-yl)amino)thiazol-5-yl)-3-methyl-1,3,4,9-tetrahydro-2H-pyrido[3,4-b]indol-2-yl)propan-1-ol]",+ (estrogen receptor agonism having (i) at least 80% increase in the E2-normalized signal in the AP assay (agonist mode) and (ii) no more than 80% reduction in the E2-normalized signal in the AP assay (antagonist mode))
10,C[C@@H]1Cc2c([nH]c3ccccc23)[C@@H](c2cnc(N[C@H]3CCCN(CCCF)C3)s2)N1CC(F)(F)CO [Example I-66],++ (estrogen receptor antagonism having (i) between 10% and 80% increase in the E2-normalized signal in the AP assay (agonist mode) and (ii) between 10% and 80% reduction in the E2-normalized signal in the AP assay (antagonist mode))
11,"C[C@@H]1Cc2c([nH]c3ccccc23)[C@@H](c2cnc(N[C@@H]3CCCN(CCCF)C3)s2)N1CC(F)(F)CO [Example I-67, 2,2-difluoro-3-((1S,3R)-1-(2-(((R)-1-(3-fluoropropyl)piperidin-3-yl)amino)thiazol-5-yl)-3-methyl-1,3,4,9-tetrahydro-2H-pyrido[3,4-b]indol-2-yl)propan-1-ol]",+ (estrogen receptor agonism having (i) at least 80% increase in the E2-normalized signal in the AP assay (agonist mode) and (ii) no more than 80% reduction in the E2-normalized signal in the AP assay (antagonist mode))
12,"C[C@@H]1Cc2c([nH]c3ccccc23)[C@@H](c2ccc(C3CCN(CCF)CC3)s2)N1CC(C)(C)F [Example I-68, (1S,3R)-1-[5-[1-(2-fluoroethyl)-4-piperidyl]-2-thienyl]-2-(2-fluoro-2-methyl-propyl)-3-methyl-1,3,4,9-tetrahydropyrido[3,4-b]indole]",++ (estrogen receptor antagonism having (i) between 10% and 80% increase in the E2-normalized signal in the AP assay (agonist mode) and (ii) between 10% and 80% reduction in the E2-normalized signal in the AP assay (antagonist mode))
13,"CCN1CCC(c2ccc([C@@H]3c4[nH]c5ccccc5c4C[C@@H](C)N3CC(C)(C)F)s2)CC1 [Example I-69, (1S,3R)-1-(5-(1-ethylpiperidin-4-yl)thiophen-2-yl)-2-(2-fluoro-2-methylpropyl)-3-methyl-2,3,4,9-tetrahydro-1H-pyrido[3,4-b]indole]",++ (estrogen receptor antagonism having (i) between 10% and 80% increase in the E2-normalized signal in the AP assay (agonist mode) and (ii) between 10% and 80% reduction in the E2-normalized signal in the AP assay (antagonist mode))
14,"CCCN1CCC(c2ccc([C@@H]3c4[nH]c5ccccc5c4C[C@@H](C)N3CC(C)(C)F)s2)CC1 [Example I-70, (1S,3R)-2-(2-fluoro-2-methyl-propyl)-3-methyl-1-[5-(1-propyl-4-piperidyl)-2-thienyl]-1,3,4,9-tetrahydropyrido[3,4-b]indole]",+ (estrogen receptor agonism having (i) at least 80% increase in the E2-normalized signal in the AP assay (agonist mode) and (ii) no more than 80% reduction in the E2-normalized signal in the AP assay (antagonist mode))
15,"C[C@@H]1Cc2c([nH]c3ccccc23)[C@@H](c2ccc(C3CCN(CCCF)CC3)s2)N1CC(C)(C)F [Example I-71, (1S,3R)-2-(2-fluoro-2-methyl-propyl)-1-[5-[1-(3-fluoropropyl)-4-piperidyl]-2-thienyl]-3-methyl-1,3,4,9-tetrahydropyrido[3,4-b]indole]",+ (estrogen receptor agonism having (i) at least 80% increase in the E2-normalized signal in the AP assay (agonist mode) and (ii) no more than 80% reduction in the E2-normalized signal in the AP assay (antagonist mode))

# Reference: US20260055103A1, “2,3,4,9-TETRAHYDRO-1H-PYRIDO[3,4-B]INDOLE DERIVATIVES AS ESTROGEN RECEPTOR MODULATORS FOR THE TREATMENT OF CANCER” (Olema Pharmaceuticals, Inc., priority 2022, published 2026)
